Earlier results, collected in patent US20110015245A1, “BENDAMUSTINE AMPHIPHILIC CATIONIC COMPOSITIONS” (priority 2009, published 2011).
Structures can show the parent of a compound that is named as a salt.

Conditions: 23° C.

Cn1c(CCCC(=O)O)nc2cc(N(CCCl)CCCl)ccc21 [bendamustine hydrochloride]
time stable in saline solution: 9 h
